# Results as given in patent publication US4510136A (priority 1983, dated 1985).
# How the values were obtained:
# [1] = test system: Puccinia recondita var. tritici; assay: Wheat leaf rust control on sprayed wheat seedlings (Example 79); type: in vivo; settings: Puccinia recondita, 168 h; 100 ppm spray, day before inoculation
# Method in brief: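 Wheat seedlings were sprayed to run-off with 100 ppm compound suspended in water with 6% acetone and 250 ppm TREM 014 surfactant. Next day they were inoculated with Puccinia recondita var. tritici spores and held 24 h at saturated humidity, 20°. Rust pustules were rated after a further 7 days in a growth room.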
# Erysiphe cichoracearum = assay: Cucumber powdery mildew control on sprayed cucumber seedlings (Example 80); type: in vivo; settings: Golovinomyces cichoracearum, 168 h, 100 ppm spray, day before inoculation
# Venturia inaequalis = assay: Apple scab control on sprayed apple seedlings (Example 82); type: in vivo; settings: Venturia inaequalis; for pest or weed control at 100 ppm: 100 ppm spray, day before inoculation
# Helminthosporium maydis = assay: Southern corn leaf blight control on sprayed corn seedlings (Example 83); type: in vivo; settings: Bipolaris maydis, 192 h, 100 ppm spray, day before inoculation
# Method in brief: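 Compounds in 6% acetone at 100 ppm in water with 250 ppm TREM 014 surfactant, sprayed to run-off on corn seedlings; next day inoculated with spore suspension. 24 h at saturated humidity and 20°, then 7 days in growth room before disease rating; phytotoxicity scored as growth reduction.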
# Cercospora arachidicola = assay: Peanut early leafspot control on sprayed peanut seedlings (Example 84); type: in vivo; settings: Mycosphaerella arachidis, 360 h, read-out: % Control Peanut Easly Leafspot; for pest or weed control at 100 ppm: 100 ppm spray, day before inoculation
# Rhizoctonia solani = assay: Rice sheath blight control on sprayed rice seedlings (Example 87); type: in vivo; settings: Rhizoctonia solani, 168 h, 100 ppm spray, day before inoculation
# Method in brief: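 Rice seedlings were sprayed to run-off with 100 ppm compound suspended in water with 6% acetone and 250 ppm TREM 014 surfactant. They were inoculated next day with bran plus R. solani mycelium. Sheath blight was rated after 7 days in a growth room.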
# Pyricularia oryzae = assay: whole plant or invertebrate; type: in vivo; settings: Pyricularia oryzae, 168 h, read-out: % Control of Rice Blast, 100 ppm spray, day before inoculation
# Phytophthora infestans = assay: whole plant or invertebrate; type: in vivo; settings: Phytophthora infestans, in Solanum lycopersicum, 168 h, read-out: % Control of Tomato Late Blight, 100 ppm spray, day before inoculation
# cucumber seedlings = assay: Phytotoxicity on cucumber seedlings (Example 80); type: in vivo; design: key: G = growth reduction; H = hormonal effects; settings: 100 ppm spray
# Procedure: The compounds of the previous example were again dissolved in acetone in an amount equal to 6% of the final volume and then suspended at a concentration of 100 ppm in purified water containing 250 ppm of the surfactant TREM 014 (polyhydric alcohol esters). These suspensions were sprayed to the point of run-off, on cucumber seedlings. The following day, the plants were inoculated with a spore suspension of the fungus Erysiphe cichoracearum, causal agent of cucumber powdery mildew, and incubated in a growth room for 7 days. Disease ratings were then made. Treated plants from successful treatments had little or no powdery mildew in contrast to untreated plants which were covered with powdery mildew. Phytotoxicity in the form of growth reduction or hormonal effects was observed on some of the plants in association with disease control.
# apple seedlings = assay: Phytotoxicity on apple seedlings (Example 82); type: in vivo; design: key: G = growth reduction; H = hormonal effects
# Procedure: These suspensions were sprayed to the point of run-off on apple seedlings. The following day, the plants were inoculated with a spore suspension of the fungus Venturia inaequalis, causal agent of apple scab, and incubated in a saturated humidity chamber at 20° for 24 hours and then in a growth room for an additional 10-12 days. Treated plants from successful treatments had fewer apple scab lesions when compared to untreated plants which were covered with scab lesions. Phytotoxicity expressed as growth reduction was observed on some of the plants in association with disease control.
# Erysiphe graminis = assay: Barley powdery mildew control on sprayed barley seedlings (Example 81); type: in vivo; settings: Blumeria graminis, 168 h; 100 ppm spray, day before inoculation
# Procedure: The compounds of the previous examples were again dissolved in acetone in an amount equal to 6% of the final volume and then suspended at a concentration of 100 ppm in purified water containing 250 ppm of the surfactant TREM 014 (polyhydric alcohol esters). These suspensions were sprayed to the point of run-off on barley seedlings. The following day, the plants were inoculated with a spore suspension of the fungus Erysiphe graminis, causal agent of barley powdery mildew, and incubated in growth room for 7 days. Disease ratings were then made. Treated plants from successful treatments had little or no powdery mildew in contrast to untreated plants which were covered with powdery mildew.
# 5 Phytophthora species = type: cell-based; settings: 200.0 ppm in V-8 agar, 22° C., 6 days
# Pythium aphanadermatum [2] = assay: Pythium control on corn, seed coating (Example 92); type: in vivo; settings: 504 h, 2 gm/kg seed
# Procedure: Several compounds of the previous examples were incorporated into a proprietary formulation and used to coat corn seeds at a rate of 2 gm/kg seed. After being thoroughly coated, the seeds were allowed to air dry at room temperature. The seeds were then planted into soil amended with a mixture of the fungus Pythium aphanadermatum, sand, and corn meal at a rate sufficient to kill most untreated seeds. The seeds were held at 49° F. for 2 weeks and then at 70° F. for 1 additional week. After this time disease ratings were made.
# Monilinia fructicola = assay: Stone fruit brown rot control on dipped canned peach halves (Example 86); settings: 120 h, 100 ppm dip, percent growth inhibition of colonies after five days
# Source text: Several compounds of the previous examples were again dissolved in acetone in an amount equal to 5% of the final volume and then suspended at a concentration of 100 ppm in purified water containing 700 ppm of the surfactant TREM 014 (polyhydric alcohol esters). Canned peach halves were dipped in this suspension for three minutes and then placed to air dry in sterile containers. Upon drying, the peach halves were inoculated with two pieces of Monilinia fructicola mycelium, causal agent of stone fruit brown rot, and incubated in the sterile containers for five days. At that time the radii of the colonies' growth were measured on each peach. […] Percent disease control (percent growth inhibition of colonies on treated peaches as compared to that of colonies on untreated peaches) is expressed in the table below.
# Pythium aphanadermatum [3] = assay: Pythium control on cotton, seed coating (Example 91); type: in vivo; settings: 168 h; for pest or weed control at 2 g/kg seed: 2 gm/kg seed
# Source text: Several compounds of the previous examples were incorporated into a proprietary formulation and used to coat cotton seeds at a rate of 2 gm/kg seed. After being thoroughly coated, the seeds were allowed to air dry at room temperature. The cotton seeds were then planted into soil amended with the fungus Pythium aphanadermatum, sand, and corn meal at a rate sufficient to kill most untreated seeds. The seeds were held at room temperature for 1 week, after which time disease ratings were made.
Compound,pest or weed control at 100 ppm [1],pest or weed control at 100 ppm (Erysiphe cichoracearum),pest or weed control at 100 ppm (Venturia inaequalis),pest or weed control at 100 ppm (Helminthosporium maydis),pest or weed control at 100 ppm (Cercospora arachidicola),pest or weed control at 100 ppm (Rhizoctonia solani),pest or weed control at 100 ppm (Pyricularia oryzae),pest or weed control at 100 ppm (Phytophthora infestans),Phytotoxicity on cucumber (cucumber seedlings),Phytotoxicity on apple (apple seedlings; 100 ppm spray),pest or weed control at 100 ppm (Erysiphe graminis),No. of 5 Phytophthora species controlled in vitro (5 Phytophthora species),pest or weed control at 2 g/kg seed (Pythium aphanadermatum [2]),inhibition of growth at 100 µg/mL (Monilinia fructicola),pest or weed control at 2 g/kg seed (Pythium aphanadermatum [3]),pest or weed control at 400 ppm (Venturia inaequalis; applied at 400 ppm),pest or weed control at 400 ppm (Cercospora arachidicola; applied at 400 ppm),Phytotoxicity on apple (apple seedlings; applied at 400 ppm),pest or weed control at 0.5 g/kg seed (Pythium aphanadermatum [3]; 0.5 gm/kg seed)
"C[Si](Cn1cncn1)(c1ccccc1)c1ccc(Cl)cc1Cl (centres unmarked) [(2,4-Dichlorophenyl)methyl(phenyl)(1H-1,2,4-triazol-1-ylmethyl)silane]",100%,100%,100%,0%,100%,0%,0%,0%,G,G,–,–,–,–,–,–,–,–,–
"C[Si](C)(Cn1cncn1)c1ccc(Cl)c(Cl)c1 [(3,4-Dichlorophenyl)dimethyl(1H-1,2,4-triazol-1-ylmethyl)silane]",60%,100%,80%,90%,0%,80%,0%,0%,–,–,100%,2,43%,–,–,–,–,–,–
"C[Si](C)(Cn1cncn1)c1ccc(Br)cc1 [(4-Bromophenyl)dimethyl(1H-1,2,4-triazol-1-ylmethyl)silane]",80%,100%,90%,90%,0%,–,0%,0%,G,G,–,–,–,–,–,–,–,–,–
"CCCC[Si](C)(Cn1cncn1)c1ccc(Cl)cc1 (centres unmarked) [Butyl(4-chlorophenyl)methyl(1H-1,2,4-triazol-1-ylmethyl)silane]",80%,100%,100%,0%,0%,0%,0%,0%,G,G,90%,–,–,98%,–,–,–,–,–
"CCCC[Si](C)(C)Cn1cncn1 [Butyldimethyl(1H-1,2,4-triazol-1-ylmethyl)silane]",0%,100%,0%,0%,0%,–,0%,0%,–,–,–,1,0%,95%,0%,–,–,–,–
"C[Si](C)(Cn1cncn1)c1cccc2ccccc12 [Dimethyl(1-naphthalenyl)(1H-1,2,4-triazol-1-ylmethyl)silane]",0%,100%,50%,0%,90%,0%,70%,0%,–,–,0%,–,30%,–,–,–,–,–,–
"C[Si](C)(Cn1cncn1)c1ccccc1C(F)(F)F [Dimethyl(1H-1,2,4-triazol-1-ylmethyl)(2-trifluoromethylphenyl)silane]",–,100%,–,0%,–,–,–,–,–,–,100%,–,–,–,–,65%,25%,G,–
"Cc1ccc([Si](C)(C)Cn2cncn2)cc1 [Dimethyl(4-methylphenyl)(1H-1,2,4-triazol-1-ylmethyl)silane]",0%,100%,50%,0%,0%,–,0%,0%,G,G,–,–,0%,–,0%,–,–,–,–
"C[Si](C)(Cn1cncn1)c1ccc(Oc2ccccc2)cc1 [Dimethyl(4-phenoxyphenyl)(1H-1,2,4-triazol-1-ylmethyl)silane]",0%,70%,100%,0%,0%,0%,0%,50%,–,–,0%,0,0%,–,–,–,–,–,18%
"C[Si](Cn1cncn1)(c1ccccc1)c1ccccc1 [Methyldiphenyl(1H-1,2,4-triazol-1-ylmethyl)silane]",0%,100%,100%,80%,100%,0%,0%,0%,G,–,100%,–,0%,–,0%,–,–,–,–
"C[Si](C)(Cn1cncn1)c1ccc(Oc2ccc(Cl)cc2)cc1 [[4-(4-Chlorophenoxy)phenyl]dimethyl(1H-1,2,4-triazol-1-ylmethyl)silane]",90%,80%,100%,50%,0%,0%,0%,50%,–,–,–,0,–,–,–,–,–,–,–
